Target: T1, PAD4 enzyme (Homo sapiens, UniProt Q9UM07)
T1 construct: PAD4 enzyme was diluted to 30 nM in Assay Buffer
Assay: In-vitro measurement for enzymatic PAD4 citrullination inhibition activity (ammonia release)
Type: biochemical
Settings: read-out: IC50 of inhibition enzymatic activity of PAD4 (Colorimetric assays, Nature Chemical Biology, 2015, 11: 189-191)
Experimental: Citrullination was detected via ammonia release based on published methodology (Nature Chemical Biology, 2015, 11: 189-191).
PAD4 enzyme was diluted to 30 nM in Assay Buffer (100 mM HEPES, 50 mM NaCl, 2 mM DTT, 0.6 mg/ml BSA, pH 8) and added to wells containing various concentrations of compound or DMSO vehicle (0.8% final) in a high-volume black 96-well plate (Greiner). Following a 60-min preincubation at 27° C., the reaction was initiated by the addition of substrate (3 mM BAEE in 100 mM HEPES, 50 mM NaCl, […] CaCl2, 2 mM DTT, pH 8). The reaction was stopped after 90 min by the addition of stop/detection buffer containing 50 mM EDTA, 2.6 mM o-phthalaldehyde and 2.6 mM DTT. Assays were incubated at 27° C. for 120 min before measuring fluorescence (λex 410/λem 476) on an Envision plate reader (PerkinElmer). After which IC50 values were calculated using GraphPad Prism 8.0.

T1 sequence (Q9UM07 whole entry): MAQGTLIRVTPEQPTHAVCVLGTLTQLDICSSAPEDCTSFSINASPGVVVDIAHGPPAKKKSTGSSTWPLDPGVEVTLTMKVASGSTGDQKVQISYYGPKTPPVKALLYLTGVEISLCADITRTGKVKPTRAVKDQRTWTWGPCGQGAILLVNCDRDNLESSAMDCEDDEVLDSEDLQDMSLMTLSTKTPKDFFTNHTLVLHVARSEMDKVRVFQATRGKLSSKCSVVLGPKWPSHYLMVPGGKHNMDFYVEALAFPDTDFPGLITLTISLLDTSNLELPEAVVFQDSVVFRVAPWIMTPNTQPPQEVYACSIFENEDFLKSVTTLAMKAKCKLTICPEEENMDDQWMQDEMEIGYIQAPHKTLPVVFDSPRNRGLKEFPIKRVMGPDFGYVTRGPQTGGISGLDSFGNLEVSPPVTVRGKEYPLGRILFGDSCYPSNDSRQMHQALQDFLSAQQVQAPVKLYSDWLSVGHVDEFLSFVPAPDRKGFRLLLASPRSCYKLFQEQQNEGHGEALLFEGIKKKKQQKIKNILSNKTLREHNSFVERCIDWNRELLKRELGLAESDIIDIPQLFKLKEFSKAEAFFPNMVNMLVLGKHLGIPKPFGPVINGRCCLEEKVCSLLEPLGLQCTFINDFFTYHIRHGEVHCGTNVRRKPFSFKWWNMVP

COc1cc(C(=O)N2C[C@H](N)CC[C@@H]2C)cc2nc(-c3cc4[se]ccc4n3CC3CC3)n(C)c12 [HH-48]
IC50: 100 to 500 nM

COc1ccccc1-c1nc2c(cc(-c3nc4cc(C(=O)N5C[C@H]6CC[C@@H]5[C@@H]6N)cc(OC)c4n3C)n2CC2CC2)[se]1 [HH-39]
IC50: > 500 nM

COc1cc(C(=O)N2C[C@H]3CC[C@@H]2[C@@H]3N)cc2nc(-c3cc4[se]c(C5CCNCC5)nc4n3CC3CC3)n(C)c12 [HH-37]
IC50: 100 to 500 nM

COc1cc(C(=O)N2C[C@H](N)CC[C@@H]2C)cc2nc(-c3cc4[se]c(-c5ccncc5)nc4n3CC3CC3)n(C)c12 [HH-41]
IC50: 100 to 500 nM

COc1cccc(Cn2c(-c3nc4cc(C(=O)N5C[C@H](N)CC[C@@H]5C)cc(OC)c4n3C)cc3[se]c(C)nc32)c1 [HH-27]
IC50: 100 to 500 nM

COc1cc(C(=O)N2C[C@H](N)CC[C@@H]2C)cc2nc(-c3cc4[se]c(C)nc4n3Cc3ccncc3)n(C)c12 [HH-29]
IC50: 100 to 500 nM

COc1cc(C(=O)N2C[C@H](N)C[C@@H](F)C2)cc2nc(-c3cc4[se]c(-c5ccncc5)nc4n3CC3CC3)n(C)c12 [HH-42]
IC50: 100 to 500 nM

CCn1c(-c2nc3cc(C(=O)N4C[C@H]5CC[C@@H]4[C@@H]5N)cc(OC)c3n2C)cc2[se]c(C)nc21 [HH-20]
IC50: 100 to 500 nM

COc1cc(C(=O)N2C[C@H](N)CC[C@@H]2C)cc2nc(-c3cc4[se]c(-c5ccccn5)cc4n3CC3CC3)n(C)c12 [HH-62]
IC50: 50 to 100 nM

COc1cc(C(=O)N2C[C@H](N)C[C@@H](F)C2)cc2nc(-c3cc4[se]c(C)nc4n3CC3CCC3)n(C)c12 [HH-18]
IC50: ≤ 50 nM

COc1cc(C(=O)N2C[C@H]3CC[C@@H]2[C@@H]3N)cc2nc(-c3cc4[se]c(-c5ccc(C)cc5)cc4n3CC3CC3)n(C)c12 [HH-56]
IC50: 100 to 500 nM

COc1cc(C(=O)N2C[C@H](N)C[C@@H](F)C2)cc2nc(-c3cc4[se]c(C5CCCN5)cc4n3CC3CC3)n(C)c12 (some centres unmarked) [HH-53]
IC50: 50 to 100 nM

COc1cc(C(=O)N[C@@H]2CC[C@H](C)NC2)cc2nc(-c3cc4cc[se]c4n3CC3CC3)n(C)c12 [HH-66]
IC50: 100 to 500 nM

COc1cc(C(=O)N2C[C@H](N)CC[C@@H]2C)cc2nc(-c3cc4[se]c(C)cc4n3CC3CC3)n(C)c12 [HH-49]
IC50: ≤ 50 nM

COc1ccc(-c2nc3c(cc(-c4nc5cc(C(=O)N6C[C@H](N)C[C@@H](F)C6)cc(OC)c5n4C)n3CC3CC3)[se]2)cc1 [HH-40]
IC50: 100 to 500 nM

COc1cc(C(=O)N2C[C@H](N)CC[C@@H]2C)cc2nc(-c3cc4[se]c(C)nc4n3CC(C)(C)C)n(C)c12 [HH-22]
IC50: 100 to 500 nM

Cc1nc2c(cc(-c3nc4cc(C(=O)N5C[C@H](N)C[C@@H](F)C5)ccn4c3C)n2CC2CC2)[se]1 [HH-73]
IC50: 50 to 100 nM

COc1ccc(-c2cc3c(cc(-c4nc5cc(C(=O)N6C[C@H]7CC[C@@H]6[C@@H]7N)cc(OC)c5n4C)n3CC3CC3)[se]2)cc1 [HH-58]
IC50: 100 to 500 nM

COc1cc(C(=O)N2C[C@H](N)CC[C@@H]2C)cc2nc(-c3cc4[se]c(C)nc4n3Cc3ccsc3)n(C)c12 [HH-34]
IC50: 50 to 100 nM

CCn1c(-c2nc3cc(C(=O)N4C[C@H](N)C[C@@H](F)C4)cc(OC)c3n2C)cc2[se]c(C)nc21 [HH-21]
IC50: 100 to 500 nM

COc1cc(C(=O)N2C[C@H]3CC[C@@H]2[C@@H]3N)cc2nc(-c3cc4[se]c(-c5ccccn5)cc4n3CC3CC3)n(C)c12 [HH-61]
IC50: 100 to 500 nM

COc1cc(C(=O)N2C[C@H]3CC[C@@H]2[C@@H]3N)cc2nc(-c3cc4[se]c(C)nc4n3CC3CCC3)n(C)c12 [HH-16]
IC50: ≤ 50 nM

COc1ccccc1-c1nc2c(cc(-c3nc4cc(C(=O)N5C[C@H](N)CC[C@@H]5C)cc(OC)c4n3C)n2CC2CC2)[se]1 [HH-38]
IC50: 100 to 500 nM

CCc1nc2c(cc(-c3nc4cc(C(=O)N5C[C@H](N)C[C@@H](F)C5)cc(OC)c4n3C)n2CC2CC2)[se]1 [HH-3]
IC50: ≤ 50 nM

COc1cc(C(=O)N2C[C@H](N)CC[C@@H]2C)cc2nc(-c3cc4[se]c(C5CCCN5)cc4n3CC3CC3)n(C)c12 (some centres unmarked) [HH-54]
IC50: 50 to 100 nM

Cc1c(-c2cc3[se]c(-c4ccccn4)nc3n2CC2CC2)nn2cc(C(=O)N3C[C@H](N)CC[C@@H]3C)ccc12 [HH-70]
IC50: 100 to 500 nM
